From ChEMBL document CHEMBL5728227, “Substituted pyrazole derivatives as selective CDK12/13 inhibitors” (2021)

Molecular target: Cyclin-dependent kinase 7 (Homo sapiens, UniProt P50613)
Experiment: Biochemical Assay for CDK7: The inhibitory activity of the test compounds was assessed by the LANCE TR-FRET assay, which detects the ATP-dependent phosphorylation of an ULight-myelin basic protein (MBP) substrate peptide (100 nM) by CDK7 (10 nM). Briefly, the enzyme reaction was run in reaction buffer (20 mM HEPES (pH 7.5), 10 mM MgCl2, 0.01% Triton x, 100 μM Sodium Orthovanadate, 1 mM DTT). The assay was performed in 384-well plate. The end concentration of the ATP substrate was 1 mM/100 μM, and that of the ULight-MBP substrate peptide was 100 nM, and of CDK7 was 10 nM. Pre-incubation of the compound and enzyme was performed for 60 min at room temperature. After 60 min incubation at room temperature, the reaction was terminated by the addition of 40 mM EDTA and 1 nM Eu-labeled anti-phospho-MBP-binding protein antibody in the buffer. Time-resolved fluorescence (excitation, 320 nm; emission donor, 615 nm; emission acceptor, 665 nm) was monitored by using 2030 multilabel reader Victor5 (PerkinElmer). The readout was calculated as (acceptor counts/donor counts)×1000. The IC50 values were derived by fitting a sigmoidal dose-response curve to a plot of assay readout over inhibitor concentration. All fits were computed with the program Prism 5.03 (Graph Pad Software, San Diego, Calif.).

Chain of Cyclin-dependent kinase 7 (P50613 whole entry): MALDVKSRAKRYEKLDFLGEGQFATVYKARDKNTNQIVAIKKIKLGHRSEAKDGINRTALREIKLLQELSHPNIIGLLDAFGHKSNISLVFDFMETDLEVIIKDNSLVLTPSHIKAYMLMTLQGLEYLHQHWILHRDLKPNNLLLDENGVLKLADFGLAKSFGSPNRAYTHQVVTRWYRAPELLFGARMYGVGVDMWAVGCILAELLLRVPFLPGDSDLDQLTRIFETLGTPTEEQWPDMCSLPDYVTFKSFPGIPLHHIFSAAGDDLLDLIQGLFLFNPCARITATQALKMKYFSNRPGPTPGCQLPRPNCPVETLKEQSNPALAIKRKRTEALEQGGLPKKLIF

C=CC(=O)N1CCC=C(c2ccc(CC(=O)Nc3cc(C4CC4)[nH]n3)cn2)C1 showed an IC50 of 1730 nM.
